Source: publication PMC4671274 (Molecular microbiology, 2015)

Target: Rv0888 (SpmT) (Mycobacterium tuberculosis, UniProt P9WKQ1)
Sequence (P9WKQ1 32-490 limits assumed): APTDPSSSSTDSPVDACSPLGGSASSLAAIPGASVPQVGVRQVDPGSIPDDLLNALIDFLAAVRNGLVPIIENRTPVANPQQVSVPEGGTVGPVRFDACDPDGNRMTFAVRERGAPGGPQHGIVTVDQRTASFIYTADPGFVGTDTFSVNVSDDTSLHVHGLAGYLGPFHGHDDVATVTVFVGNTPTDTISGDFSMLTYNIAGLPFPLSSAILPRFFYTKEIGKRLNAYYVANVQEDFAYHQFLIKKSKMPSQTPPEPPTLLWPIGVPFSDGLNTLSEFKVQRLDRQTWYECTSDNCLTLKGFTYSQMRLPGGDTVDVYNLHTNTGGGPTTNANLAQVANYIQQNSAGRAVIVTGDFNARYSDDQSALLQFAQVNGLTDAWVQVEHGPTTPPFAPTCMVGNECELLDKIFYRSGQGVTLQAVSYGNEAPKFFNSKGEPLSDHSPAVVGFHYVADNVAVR

sphingomyelin
Km: 671 µM
